Results as given in patent US11406619B2, “Injectable formulations” (priority 2020, dated 2022).

Assay: Appearance of formulations at preparation and on storage
Assay type: physicochemical
Conditions: 10 mg/mL in aqueous vehicles
Procedure: Appearance and pH results for formulation 10 (technical batch) at preparation and following storage at 2-8° C., 25° C./60% relative humidity (RH) and 40°/75% RH are presented in Table 17. At T=0 (the initial analysis), the pH met the specification of 3.8-4.2 and the osmolality met the specification of 270-330 mOsm/kg (296 mOsm/kg). […] However, at 40° C./75% RH there is an obvious colour change in the product at T=6 months. There was an indication of colour change at the 2 and 3 month points on storage at 40° C./75% RH when compared to the other storage conditions, but at 6 months the colour change was obvious.
Appearance and pH results for formulation 10 (clinical batch) at preparation and following storage at 2-8° C., 25° C./60% relative humidity (RH) and 40°/75% RH are presented in Table 24. […] There was an indication of colour change at the 3 month point.

**Q.** Which results are given for DMT fumarate [SPL026]?
**A.** Appearance (after filtration (0.2 μm filters)): clear colourless solution; Appearance (before filtration): clear beige colour
